From patent US20260256863A1, “COMPOSITION, COMPRISING CINNAMOMUM CASSIA EXTRACT HAVING INNOVATIVE CKD EXTRACTION TECHNOLOGY (ICET) TECHNOLOGY APPLIED THERETO, FOR PREVENTING, ALLEVIATING, OR TREATING GASTRITIS OR PEPTIC ULCER” (CHONG KUN DANG PHARMACEUTICAL CORP., priority 2022, published 2026)

System: acute or chronic gastritis patients with one or more erosions
Experiment: Clinical trial in acute or chronic gastritis patients (gastroscopy, Example 3)
Type: in vivo, human
Conditions: 300 mg, 2 weeks, N=42
Protocol: The Cinnamomum cassia extract of the Preparation Example 1 according to the present disclosure, placebo, and active control drug were administered to acute and chronic gastritis patients to compare and evaluate the effectiveness and safety of Cinnamomum cassia extract according to the present disclosure in a searching manner and to determine an appropriate dose. Specifically, acute or chronic gastritis patients with one or more erosions identified in a gastroscopy performed within 7 days from the start date of administration of investigational medical product were divided into the following test groups and administered for 2 weeks. • Test group I (group administered with 225 mg of Cinnamomum cassia extract according to the present disclosure) • Test group II (group administered with 450 mg of Cinnamomum cassia extract according to the present disclosure) • Control group I (group administered with placebo) • Control group II (group administered with 180 mg of ethanol soft ext. (20->1) of 95% artemisia) • Control group III (group administered with 300 mg rebamipide) • (1) Effective rate on gastroscopy: The proportion of test subjects whose erosion score on gastroscopy reduced by more than 50% after 2 weeks of administration (visit 3) compared to baseline (visit 1) was calculated according to the following Equation 1, and evaluated according to the criteria in Table 3. [table] • (1) Complete cure rate on gastroscopy: The proportion of test subjects who were completely cured to normal on gastroscopy (0 erosions: erosion score 1 point) after 2 weeks of administration (visit 3) compared to baseline (visit 1) was calculated and evaluated according to the following Equation 2.

O=C(NC(Cc1cc(=O)[nH]c2ccccc12)C(=O)O)c1ccc(Cl)cc1 (stereo not shown) [rebamipide]
Complete cure rate on gastroscopy: 40.48%
Effective example people (complete cure rate on gastroscopy): 17 people
Effective example people (effective rate on gastroscopy): 20 people
Effective rate on gastroscopy: 47.62%
